Laboratory results as given in patent publication US5508273A, “Substituted phosphonic acids and derivatives useful in treating bone wasting diseases” (priority 1993, dated 1996).

Key:
[1] = biological target: T1, Human osteoclastic acid phosphatase (OAP) (Homo sapiens, UniProt P13686); experiment: Osteoclastic Acid Phosphatase (OAP) inhibition; assay type: biochemical; settings: pH 5.0, room temperature, 20 minutes; for inhibition at 100 µM: read-out: OAPase % Inh@100 uM
T1 construct: purified from hairy cell leukemia spleen; from tissue; host or cells: human hairy cell leukemia spleen
T1 sequence (P13686 22-325): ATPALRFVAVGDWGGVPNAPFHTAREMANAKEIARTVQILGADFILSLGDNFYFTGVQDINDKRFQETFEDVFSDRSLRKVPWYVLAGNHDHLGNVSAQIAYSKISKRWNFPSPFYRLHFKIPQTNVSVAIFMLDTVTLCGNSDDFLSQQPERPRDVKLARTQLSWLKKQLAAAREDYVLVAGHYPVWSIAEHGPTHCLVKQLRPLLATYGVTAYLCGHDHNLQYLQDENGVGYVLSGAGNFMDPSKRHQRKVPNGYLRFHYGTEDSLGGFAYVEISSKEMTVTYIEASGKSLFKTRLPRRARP
Method: Inhibitors of the enzyme are involved with the stimulation of osteoblast cell proliferation in cell culture which is predictive of enhancement of bone mass and bone formation in vivo. Inhibitors of osteoclastic acid phosphatase prevent the resorptive action of osteoclasts and thereby prevent the degradation of bone mass associated with osteoporosis.
The enzyme was stored at -80° C. and was diluted in 50 mM, pH 5.0, sodium acetate buffer prior to use. Test compounds were dissolved in ethanol, DMSO, or water and tested at 100 μM. The assay measures the ability of the enzyme to dephosphorylate methylumbelliferone phosphate to the product, methylumbelliferone, which is fluorescent. The enzyme assay is performed in 50 mM, pH 5.0, sodium acetate buffer as follows: 5 μL of compound was added to 150 μL Of buffered enzyme solution. […] The reaction was performed at room temperature at pH=5.0 and terminated after 20 minutes by the addition of 50 μL of 4N NaOH. The reaction product, methylumbelliferone, was measured by fluorescence determination using a Dynatech Microfluor Fluorescence detector.

[2] = test system: osteoblast-line cells (mouse MC3T3-E 1 and human TE-85); experiment: Osteoblast cell proliferation (3H-thymidine incorporation); assay type: cell-based; settings: MC3T3-E1, control is 100%, cell line (MC3T3-E 1 or TE-85) not stated per value, read-out: Osteoblast Prolif (% XControl@ 0.01 uM)
Description: Compounds of the present invention have utility to treat bone wasting diseases including osteoporosis in animals including humans through enhancement of bone calcification as well as inhibition of bone degeneration or resorption. The compounds of the present invention have been evaluated as inhibitors of human prostatic tyrosyl phosphatase, an isoenzyme similar to a tyrosyl phosphatase present in human osteoblasts. Inhibitors of the enzyme are involved with the stimulation of osteoblast cell proliferation in cell culture which is predictive of enhancement of bone mass and bone formation in vivo. Inhibitors of osteoclastic acid phosphatase prevent the resorptive action of osteoclasts and thereby prevent the degradation of bone mass associated with osteoporosis. Table 1 reports the results of the compounds of the present invention in inhibiting human prostatic tyrosyl phosphatase and osteoclastic acid phosphatase. […] Their ability to stimulate osteoblast cell proliferation at 0.01 uM concentration is presented also in Table 1. […] However, such compounds may be useful as prodrugs to the acid (R^1 and R^2 equal H) and as intermediates useful in making the corresponding acid.
The action of select compounds to stimulate osteoblast growth can be measured in culture by estimating the rate of DNA synthesis by the rate of ^3 H-thymidine incorporation into DNA. Only cells undergoing mitosis will synthesize new DNA and thus only these cells will incorporate the radiolabeled DNA-specific thymidine. The stimulation of the proliferation and differentiation of bone-forming cells, osteoblasts, is a prerequisite for an increase in bone formation and bone mass. The ability of agents to increase osteoblast proliferation and differentiation can be predicted by their action on cultured osteoblast-line cells in vitro. In this test, mouse (MC3T3-E 1) cloned by Sudo et al. Koriyama, Japan) and human (TE-85) osteoblast-line cells (American Type Tissue Culture Collection, #CRL 1543, Rockville, Md.) were cultured/n vitro and the effect of various agents was tested on osteoblast cell proliferation. Osteoblasts were isolated and cultured according to literature methods. [J. E. Puzas, R. H. Drivdahl, A. G. Howard, and D. J. Baylink, Proc. Soc. Exper. Biol. Med., 166 113-122, […]]. Cells were harvested from large culture flasks, where they were allowed to grow to near confluency, using trypsin. The cells were plated into 96 well culture plates, 1600 cells in 100 μL per well in Dulbecco's Modified Eagle's Medium with 25 mM HEPES buffer, L-glutamine (584 mg/L); D-glucose (4.5 g/L) supplemented with fetal bovine sera (10%); penicillin (100 units/mL)and streptomycin (100 mcg/mL); sodium pyruvate (10 μM final concentration). The cells were allowed to plate overnight in DMEM containing 10% fetal bovine sera at 37° C., in an atmosphere of 5% CO2 /95% air. Following their placement into 96 well culture plates all the osteoblast-line cells, either the MC3T3-E 1 or the TE-85 cell lines, were allowed an additional 24 hours preincubation period in media containing only 0.1% fetal bovine sera. The next day the test compounds were added and screened at concentrations ranging from 10^-4 to 10^-8 M depending on the study. Twenty hours later, a 20 μL aliquot of media containing 0.4 μCi of ^3 H-thymidine was added to each culture well. The cells were then incubated an additional 4 hours. The incubation was terminated by aspirating the media and washing with HBSS (Hank's Balanced Salt Solution). The cells were then treated with 100 μL of 0.5% trypsin and […] of EDTA for 30 minutes at room temperature. The cells were then aspirated onto a glass fiber filter and washed with water. The radioactivity on the filters was quantified by liquid scintillation spectroscopy. The rate of ^3 H-thymidine incorporation into DNA is then utilized as an index of cell proliferation. The results are shown in Table 1 expressed as % times control where control is 100%.

[3] = biological target: T2, human prostatic tyrosyl phosphatase (Homo sapiens, UniProt P15309); experiment: biochemical; settings: 30 minutes at 37° C., pH 5.5, (14C)-phosphotyrosine substrate; read-out: Tyr-Pase IC50
T2 construct: purchased Sigma Chemical Co
T2 sequence (P15309 33-386): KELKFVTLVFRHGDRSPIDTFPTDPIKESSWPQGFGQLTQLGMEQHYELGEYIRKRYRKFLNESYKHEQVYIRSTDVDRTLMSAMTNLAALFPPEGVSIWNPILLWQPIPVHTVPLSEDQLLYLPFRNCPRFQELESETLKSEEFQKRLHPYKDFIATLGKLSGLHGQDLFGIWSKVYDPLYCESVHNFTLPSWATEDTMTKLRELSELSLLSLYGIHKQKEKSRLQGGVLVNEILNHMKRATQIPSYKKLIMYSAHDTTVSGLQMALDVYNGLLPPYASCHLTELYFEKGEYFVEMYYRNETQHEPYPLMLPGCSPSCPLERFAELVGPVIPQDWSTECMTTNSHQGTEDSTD
Method: Inhibition of the activity of tyrosyl protein phosphatase was evaluated by incubating an aliquot of purified human prostatic tyrosyl protein acid phosphatase (Sigma Chemical Co.) with radiolabeled phosphotyrosine. The radiolabeled substrate, (^14 C)-phosphotyrosine, is separated from the product, (^14 C)-tyrosine by ion exchange chromatography and the production of radiolabeled tyrosine is quantified. Test compounds are screened at a concentration of one micromolar to 1 nM. The ability of test compounds to inhibit tyrosyl phosphatase was expressed as the % inhibition at the highest concentration of test compound tested and/or as the IC50 in Table 1.
The test compounds were incubated in the presence of tyrosyl acid phosphatase and radiolabeled substrate {(^14 C)-phosphotyrosine, (NEN Dupont Custom Synthesis)} plus cold O-phospho-L-tyrosine{(10 uM) (Sigma Chemical Co.)} in a 0.05 mM sodium acetate buffer (pH 5.5) for 30 minutes at 37° C. […] The incubation mixture was passed over an ion-exchange column {(Ag 1-X8) (Bio-Rad Laboratories)} and washed with 2.5 ml of distilled, deionized water. The total column effluent containing the radiolabeled product (^14 C-tyrosine) was collected and quantified by liquid scintillation spectroscopy. The test compounds IC50 was calculated using a quantal (all-or-none) dose-response calculation.

| IC50 ([1]; read-out: OAPase IC50) [µM] | IC50 [3] [µM] | inhibition at 100 µM [1] [%] | SMILES | activity at 0.01 µM [2] [%] |
| --- | --- | --- | --- | --- |
| 100 | 17.4 |  | O=P(O)(O)C(CCCCc1ccccc1)c1ccccc1 (centres unmarked) [Cmpd 10] | 124 |
|  | 40.9 | 12 | O=P(O)(O)C(c1ccccc1)c1ccccc1F (centres unmarked) [Cmpd 12] | 124 |
|  | 152 | 22 | Cc1ccc(C(c2ccccc2)P(=O)(O)O)cc1 (centres unmarked) [Cmpd 22] | 116 |
|  | 290 | 15 | Cc1cccc(C(Cc2ccccc2)P(=O)(O)O)c1 (centres unmarked) [Cmpd 29] | 99 |
|  | 81.9 |  | Cc1cccc(C(Cc2ccc(Cl)cc2)P(=O)(O)O)c1 (centres unmarked) [Cmpd 30] | 97 |
|  | 34.5 | 30 | O=P(O)(O)C(Cc1ccc(Cl)cc1)c1ccccc1 (centres unmarked) [Cmpd 33] | 104 |
|  | 89.2 | 15 | O=P(O)(O)C(Cc1ccccc1)c1ccccc1 (centres unmarked) [Cmpd 34] | 156 |
